Data taken from patent US4005219A, “Pharmaceutical compositions and their administration for the prophylaxis of asthma, hayfever and rhinitis” (Beecham Group Limited, priority 1974, dated 1977).

Tested on: PCA response
Assay: Rat Passive Cutaneous Anaphylaxis (PCA) test
Assay type: in vivo, Wistar rats
Details: iv
Description: All of the 2-nitro indane-1,3-diones prepared in the preceeding Examples were submitted for biological testing. The test system was the Rat Passive Cutaneous Anaphylaxis (PCA) test described below in (II).
7, 681Serum containing heat labile homocytotropic antibody was raised in rats by a method similar to that used by Mota. (I. Mota Immunology 1964, 7, 681).
Male Wistar rats of 250-300g, were injected intraperitoneally with 0.5ml. of Bordetella pertussis vaccine (containing 4 × 10^10 dead oranism per ml. and subcutaneously with 0.5ml. of an emulsion of 100mg. of ovalbumin in 2ml of saline and 3ml of incomplete Freunds' adjuvant. Rats were bled by cardiac puncture on day 18, the blood was pooled and separated and serum stored at -20° and thawed only once before use.
II. The P.C.A. test was similar to that described by Ovary and Bier (A. Ovary and O. E. Bier. Proc. Soc. Exp. Biol. Med. 1952, 81, 584) and Goose and Blair (J. Goose and A. M. J. N Blair Immunology 1969, 16, 749).
0.1ml of each of six twofold serial dilutions of the serum in 0.9% saline were injected intradermally into separate sites on the shaved dorsal surface of 250-350g. Wistar rats. 72 hours later the animals were challenged by i.v. injection of 0.3ml of 1% ovalbumin mixed with 0.1ml of a 5% solution of pontamine sky blue dye both in isotonic saline buffered with pH. 7.2 Sorenson buffer (P.B.S.). The rats were killed after 20 minutes and the diameter of the blue wheals at the antibody injection sites were measured. The starting dilution of the serum was adjusted so that there was no response, after challenge, at the site of injection of the highest dilution and a maximum response at the lowest dilution. Typically six twofold serial dilutions of the serum from one-fourth to […] were used.
Compounds were tested for their ability to reduce the diameter of the wheals at the injection sites of dilutions of antibody which on all the controls have less than maximum response. Amounts of the compounds were administered to rats each amount to a test group of six animals at a specified time prior to intravenous challenge with ovalbumin. The diameters of the blue wheals which developed on the test group of animals were compared with those on a control group of six animals treated in the same way as the test group, but which had not received the compound under test.
% Inhibition of P.C.A. = 100 (1 - a/b)
a = The mean of the sum of the diameters of the wheals produced in the test group of animals at those antibody sites where all the control group of animals gave less than maximum response.
b = The mean of the sum of diameters of the wheals produced in the control group of animals at those antibody sites where all the animals in the group gave less than maximum response.
The preferred method of administration was as a solution of the test compound dissolved in pH 7.2 buffer and neutralised with sodium bicarbonate. For those compounds having insoluble sodium salts, the salts were isolated by reaction of the free nitro compound with 2.5N sodium hydroxide and the filtered sodium salt washed free of alkali with water. The dried salts were then administered as a suspension in 1% methyl cellulose.

[1] = 0 h, Time 0 mins (prior to i.v. ovalbumin challenge)
[2] = 0.5 h, Time 30 mins (prior to i.v. ovalbumin challenge)
[3] = 1 h, Time 60 mins (prior to i.v. ovalbumin challenge)

Compound | inhibition in vivo at 25 mg/kg [1] | inhibition in vivo at 100 mg/kg [1] | inhibition in vivo at 25 mg/kg [2] | inhibition in vivo at 100 mg/kg [2] | inhibition in vivo at 25 mg/kg [3] | inhibition in vivo at 100 mg/kg [3]
CC1C=CC(C)[C@@H]2C(=O)C([N+](=O)[O-])C(=O)[C@H]12 (stereo partly drawn) [3(b), 4,7-Dimethyl-2-nitro cis-3a,4,7,7a-tetrahydroindane-1,3-dione] | -8% | -8% | 7% | -1% |  | 
CC1C[C@@H]2C(=O)C([N+](=O)[O-])C(=O)[C@@H]2CC1C (stereo partly drawn) [2(b), 5,6-Dimethyl cis-hexahydro-2-nitro indane-1,3-dione] | 7% | 31% | 6% | 37% |  | 
O=C1C2C3C=CC(CC3)C2C(=O)C1[N+](=O)[O-] (stereo not shown) [12(b), 4-Nitro tricyclo [5,2,2,0^2,6] undec-8-ene-3,5-dione] | 0% | -3% | 29% | 32% |  | 
O=C1C2C3CCC(C3)C2C(=O)C1[N+](=O)[O-] (stereo not shown) [7(b), 4-Nitro tricyclo [5,2,1,0^2,6] decane-3,5-dione] | 8% | 26% | -3% | 9% |  | 
CC(=O)OC1CCC[C@@H]2C(=O)C([N+](=O)[O-])C(=O)[C@H]12 (stereo partly drawn) [10(b), 4-Acetoxy-cis-hexahydro-2-nitro-indane-1,3-dione] | 12% | 11% | 17% | 20% |  | 
COC(=O)C1C=CC[C@@H]2C(=O)C([N+](=O)[O-])C(=O)[C@H]12 (stereo partly drawn) [9(b), 4-Carbomethoxy-2-nitro-cis-3a, 4,7,7a-tetrahydroindane-1,3-dione] | 2% | 10% | -9% | -5% |  | 
O=C(O)C1C=CC[C@@H]2C(=O)C([N+](=O)[O-])C(=O)[C@H]12 (stereo partly drawn) [5(b), 4-Carboxy-2-nitro cis-3a,4,7,7a-tetrahydroindane-1,3-dione] | 2% | -3% | -1% | -6% |  | 
O=C1C2C3CCC(CC3)C2C(=O)C1[N+](=O)[O-] (stereo not shown) [13(b), 4-Nitro tricyclo [5,2,2,0^2,6] undecane-3,5-dione] | 14% | 8% | 13% | 29% |  | 
O=C1C2C3C=CC(C3)C2C(=O)C1[N+](=O)[O-] (stereo not shown) [6(b), 4-Nitro tricyclo [5,2,1,0^2,6] dec-8-ene-3,5-dione] | -9% | 4% |  |  | -9% | 17%
CC1CCC(C)[C@@H]2C(=O)C([N+](=O)[O-])C(=O)[C@H]12 (stereo partly drawn) [4(b), 4,7-Dimethyl cis-hexahydro-2-nitro indane-1,3-dione] | 4% | 19% |  |  | 13% | 11%
CC1=C(C)C[C@H]2C(=O)C([N+](=O)[O-])C(=O)[C@H]2C1 (relative stereo) [1(b), 5,6-Dimethyl-2-nitro cis-3a,4,7,7a-tetrahydroindane-1,3-dione] | 16% | 61% | 6% | 42% |  | 
CC1CCC[C@@H]2C(=O)C([N+](=O)[O-])C(=O)[C@H]12 (stereo partly drawn) [II(b), 4-Methyl-2-nitro-cis-hexahydroindane-1,3-dione] | -13% | 11% | -8% | 17% |  | 
CC1C=CC[C@@H]2C(=O)C([N+](=O)[O-])C(=O)[C@H]12 (stereo partly drawn) [8(b), 4-Methyl-2-nitro-cis-3a,4,7,7a-tetrahydroindane-1,3-dione] | 12% | 41% | 13% | 52% |  | 
